Results reported in ChEMBL document CHEMBL3885881, “DrugMatrix”.

Species on record: Rattus norvegicus
Assay: DrugMatrix - Regimen: Daily Repeat
Type: toxicity, organism-based, Sprague-Dawley
Parameters: regimen Daily Repeat, gender Male, age 6-8 weeks
Conditions: in vivo, po, route oral GAVAGE, […]; for ABSOLUTE BASOPHIL / ABSOLUTE EOSINOPHIL / ABSOLUTE LYMPHOCYTE / ABSOLUTE MONOCYTE / ABSOLUTE SEGMENTED NEUTROPHIL / BASOPHIL / EOSINOPHIL / ERYTHROCYTE COUNT / HEMATOCRIT / HEMOGLOBIN / LEUKOCYTE COUNT / LYMPHOCYTE / MEAN CORPUSCULAR HEMOGLOBIN / MEAN CORPUSCULAR HEMOGLOBIN CONCENTRATION / MEAN CORPUSCULAR VOLUME / MONOCYTE / NEUTROPHIL / NUCLEATED RED BLOOD CELLS / PLATELET COUNT: tissue Blood; for ALANINE AMINOTRANSFERASE / ALBUMIN / ALKALINE PHOSPHATASE / ASPARTATE AMINOTRANSFERASE / BLOOD UREA NITROGEN / CARBON DIOXIDE / CHLORIDE / CHOLESTEROL / CREATINE PHOSPHOKINASE / CREATININE / GLUCOSE / LACTATE DEHYDROGENASE / LIPASE / PHOSPHORUS / POTASSIUM / SODIUM / TOTAL BILIRUBIN / TOTAL PROTEIN / URIC ACID: tissue Plasma
[1] = 100 mg/kg, 120 h, dose level Low, time 5 day
[2] = 972 mg/kg, 72 h, dose level High, time 3 day
[3] = 972 mg/kg, 120 h, dose level High, time 5 day

How did the “ABSOLUTE BASOPHIL” value [1] turn out when `CC(=O)Nc1ccc(O)cc1` [ACETAMINOPHEN] was run?
Its value is 0 CELLS/uL.

What about the “ABSOLUTE EOSINOPHIL” value [1] of the same molecule?
Its value is 65 CELLS/uL.

What about the “ABSOLUTE LYMPHOCYTE” value [1] of the same molecule?
Its value is 8879.67 CELLS/uL.

And the “ABSOLUTE MONOCYTE” value [1]?
Its value is 40.33 CELLS/uL.

And the “ABSOLUTE SEGMENTED NEUTROPHIL” value [1]?
Its value is 548.33 CELLS/uL.

What about the BASOPHIL [1] of the same molecule?
The BASOPHIL was 0%.

What about the EOSINOPHIL [1] of the same molecule?
The EOSINOPHIL was 0.67%.

What about the “ERYTHROCYTE COUNT” value [1] of the same molecule?
Its value is 5.47 x10E6/uL.

What about the HEMATOCRIT [1] of the same molecule?
The HEMATOCRIT was 34.53%.

And the HEMOGLOBIN [1]?
Its HEMOGLOBIN is 13.27 G/DL.

What about the “LEUKOCYTE COUNT” value [1] of the same molecule?
Its value is 9.53 x10E3/uL.

And the LYMPHOCYTE [1]?
The LYMPHOCYTE was 93.67%.

And the “MEAN CORPUSCULAR HEMOGLOBIN” value [1]?
Its value is 24.27 pg.

And the “MEAN CORPUSCULAR HEMOGLOBIN CONCENTRATION” value [1]?
Its value is 38.43 G/DL.

And the “MEAN CORPUSCULAR VOLUME” value [1]?
The value was 63.13 fL.

What about the MONOCYTE [1] of the same molecule?
Its MONOCYTE is 0.33%.

And the NEUTROPHIL [1]?
Its NEUTROPHIL is 5.33%.

And the “NUCLEATED RED BLOOD CELLS” value [1]?
Its value is 0 /100WBC.

And the “PLATELET COUNT” value [1]?
Its value is 1237.33 x10E3/uL.

What about the “ALANINE AMINOTRANSFERASE” value [1] of the same molecule?
Its value is 58.33 u/L.

What about the ALBUMIN [1] of the same molecule?
The ALBUMIN was 4.3 G/DL.

And the “ALKALINE PHOSPHATASE” value [1]?
Its value is 341.67 u/L.

And the “ASPARTATE AMINOTRANSFERASE” value [1]?
Its value is 84 u/L.

What about the “BLOOD UREA NITROGEN” value [1] of the same molecule?
The value was 14 mg/dL.

What about the “CARBON DIOXIDE” value [1] of the same molecule?
The value was 27.33 mmol/L.

And the CHLORIDE [1]?
Its CHLORIDE is 98.33 MEQ/L.

What about the CHOLESTEROL [1] of the same molecule?
Its CHOLESTEROL is 81.33 mg/dL.

And the “CREATINE PHOSPHOKINASE” value [1]?
Its value is 273 u/L.

What about the CREATININE [1] of the same molecule?
Its CREATININE is 0.18 mg/dL.

What about the GLUCOSE [1] of the same molecule?
The GLUCOSE was 158.67 mg/dL.

And the “LACTATE DEHYDROGENASE” value [1]?
Its value is 79.67 u/L.

And the LIPASE [1]?
Its LIPASE is 10 u/L.

And the PHOSPHORUS [1]?
Its PHOSPHORUS is 9.17 mg/dL.

What about the POTASSIUM [1] of the same molecule?
Its POTASSIUM is 5.75 MEQ/L.

What about the SODIUM [1] of the same molecule?
Its SODIUM is 143.87 MEQ/L.

And the “TOTAL BILIRUBIN” value [1]?
The value was 0.23 mg/dL.

And the “TOTAL PROTEIN” value [1]?
Its value is 6.27 G/DL.

What about the “URIC ACID” value [1] of the same molecule?
Its value is 0.77 mg/dL.

What about the “ABSOLUTE BASOPHIL” value [2] of the same molecule?
The value was 0 CELLS/uL.

What about the “ABSOLUTE EOSINOPHIL” value [2] of the same molecule?
Its value is 0 CELLS/uL.

And the “ABSOLUTE LYMPHOCYTE” value [2]?
The value was 8609 CELLS/uL.

What about the “ABSOLUTE MONOCYTE” value [2] of the same molecule?
Its value is 158.2 CELLS/uL.

And the “ABSOLUTE SEGMENTED NEUTROPHIL” value [2]?
The value was 1212.8 CELLS/uL.

And the BASOPHIL [2]?
Its BASOPHIL is 0%.

And the EOSINOPHIL [2]?
Its EOSINOPHIL is 0%.

What about the “ERYTHROCYTE COUNT” value [2] of the same molecule?
Its value is 5.94 x10E6/uL.

And the HEMATOCRIT [2]?
The HEMATOCRIT was 36.4%.

What about the HEMOGLOBIN [2] of the same molecule?
The HEMOGLOBIN was 13.62 G/DL.

What about the “LEUKOCYTE COUNT” value [2] of the same molecule?
The value was 9.98 x10E3/uL.

And the LYMPHOCYTE [2]?
Its LYMPHOCYTE is 85.6%.

And the “MEAN CORPUSCULAR HEMOGLOBIN” value [2]?
Its value is 22.9 pg.

And the “MEAN CORPUSCULAR HEMOGLOBIN CONCENTRATION” value [2]?
Its value is 37.44 G/DL.

And the “MEAN CORPUSCULAR VOLUME” value [2]?
The value was 61.28 fL.

What about the MONOCYTE [2] of the same molecule?
The MONOCYTE was 2%.

And the NEUTROPHIL [2]?
The NEUTROPHIL was 12.4%.

And the “NUCLEATED RED BLOOD CELLS” value [2]?
Its value is 0 /100WBC.

What about the “PLATELET COUNT” value [2] of the same molecule?
The value was 1006.4 x10E3/uL.

What about the “ALANINE AMINOTRANSFERASE” value [2] of the same molecule?
Its value is 85 u/L.

What about the ALBUMIN [2] of the same molecule?
Its ALBUMIN is 4.4 G/DL.

And the “ALKALINE PHOSPHATASE” value [2]?
Its value is 536.6 u/L.

What about the “ASPARTATE AMINOTRANSFERASE” value [2] of the same molecule?
The value was 123.8 u/L.

What about the “BLOOD UREA NITROGEN” value [2] of the same molecule?
The value was 14 mg/dL.

What about the “CARBON DIOXIDE” value [2] of the same molecule?
The value was 31.2 mmol/L.

What about the CHLORIDE [2] of the same molecule?
The CHLORIDE was 99.67 MEQ/L.

What about the CHOLESTEROL [2] of the same molecule?
The CHOLESTEROL was 76.2 mg/dL.

And the “CREATINE PHOSPHOKINASE” value [2]?
The value was 298.8 u/L.

What about the CREATININE [2] of the same molecule?
Its CREATININE is 0.19 mg/dL.

And the GLUCOSE [2]?
The GLUCOSE was 161 mg/dL.

And the “LACTATE DEHYDROGENASE” value [2]?
Its value is 128 u/L.

What about the LIPASE [2] of the same molecule?
Its LIPASE is 10.8 u/L.

And the PHOSPHORUS [2]?
Its PHOSPHORUS is 10.82 mg/dL.

And the POTASSIUM [2]?
Its POTASSIUM is 5.81 MEQ/L.

And the SODIUM [2]?
The SODIUM was 143.6 MEQ/L.

What about the “TOTAL BILIRUBIN” value [2] of the same molecule?
The value was 0.14 mg/dL.

And the “TOTAL PROTEIN” value [2]?
Its value is 6.04 G/DL.

What about the “URIC ACID” value [2] of the same molecule?
Its value is 0.68 mg/dL.

And the “ABSOLUTE BASOPHIL” value [3]?
The value was 0 CELLS/uL.

What about the “ABSOLUTE EOSINOPHIL” value [3] of the same molecule?
Its value is 17.8 CELLS/uL.

What about the “ABSOLUTE LYMPHOCYTE” value [3] of the same molecule?
Its value is 10212.2 CELLS/uL.

And the “ABSOLUTE MONOCYTE” value [3]?
The value was 135.4 CELLS/uL.

And the “ABSOLUTE SEGMENTED NEUTROPHIL” value [3]?
Its value is 1674.6 CELLS/uL.

What about the BASOPHIL [3] of the same molecule?
The BASOPHIL was 0%.

And the EOSINOPHIL [3]?
The EOSINOPHIL was 0.2%.

What about the “ERYTHROCYTE COUNT” value [3] of the same molecule?
Its value is 6.63 x10E6/uL.

And the HEMATOCRIT [3]?
Its HEMATOCRIT is 40.4%.

What about the HEMOGLOBIN [3] of the same molecule?
Its HEMOGLOBIN is 14.86 G/DL.

What about the “LEUKOCYTE COUNT” value [3] of the same molecule?
The value was 12.04 x10E3/uL.

What about the LYMPHOCYTE [3] of the same molecule?
The LYMPHOCYTE was 85.2%.

What about the “MEAN CORPUSCULAR HEMOGLOBIN” value [3] of the same molecule?
The value was 22.46 pg.

And the “MEAN CORPUSCULAR HEMOGLOBIN CONCENTRATION” value [3]?
The value was 36.82 G/DL.

What about the “MEAN CORPUSCULAR VOLUME” value [3] of the same molecule?
The value was 61 fL.

And the MONOCYTE [3]?
Its MONOCYTE is 1.2%.

And the NEUTROPHIL [3]?
Its NEUTROPHIL is 13.4%.

And the “NUCLEATED RED BLOOD CELLS” value [3]?
The value was 0 /100WBC.

And the “PLATELET COUNT” value [3]?
The value was 1437.6 x10E3/uL.

And the “ALANINE AMINOTRANSFERASE” value [3]?
The value was 100 u/L.

What about the ALBUMIN [3] of the same molecule?
The ALBUMIN was 4.46 G/DL.

What about the “ALKALINE PHOSPHATASE” value [3] of the same molecule?
Its value is 485.6 u/L.

What about the “ASPARTATE AMINOTRANSFERASE” value [3] of the same molecule?
Its value is 108.4 u/L.

And the “BLOOD UREA NITROGEN” value [3]?
Its value is 14.2 mg/dL.

And the “CARBON DIOXIDE” value [3]?
The value was 29 mmol/L.

And the CHLORIDE [3]?
The CHLORIDE was 104 MEQ/L.

What about the CHOLESTEROL [3] of the same molecule?
Its CHOLESTEROL is 71.6 mg/dL.

What about the “CREATINE PHOSPHOKINASE” value [3] of the same molecule?
Its value is 328.8 u/L.

And the CREATININE [3]?
Its CREATININE is 0.17 mg/dL.

And the GLUCOSE [3]?
Its GLUCOSE is 154 mg/dL.

What about the “LACTATE DEHYDROGENASE” value [3] of the same molecule?
Its value is 199.2 u/L.

What about the LIPASE [3] of the same molecule?
The LIPASE was 9.8 u/L.

And the PHOSPHORUS [3]?
Its PHOSPHORUS is 13.5 mg/dL.

And the POTASSIUM [3]?
Its POTASSIUM is 6.73 MEQ/L.

And the SODIUM [3]?
The SODIUM was 144.74 MEQ/L.

And the “TOTAL BILIRUBIN” value [3]?
The value was 0.22 mg/dL.

And the “TOTAL PROTEIN” value [3]?
The value was 6.42 G/DL.

And the “URIC ACID” value [3]?
The value was 3.3 mg/dL.
